Assay results taken from patent US6808904B2, “Herbicide-tolerant protox genes produced by DNA shuffling” (priority 1994, dated 2004).

Legend:
[1] = system: Arabidopsis line expressing AraC-2Ile+AraC305Leu; assay: Cross tolerance in a seed germination assay, homozygous Arabidopsis line with AraC-2Ile+AraC305Leu; type: in vivo, Arabidopsis thaliana; details: AraC-2Ile+AraC305Leu line vs wt
Method: Using the procedure described above, an Arabidopsis protox-1 cDNA containing a TAC to ATG (Tyrosine to Methionine) change at nucleotides 1306-1308 in the protox-1 sequence (SEQ ID NO:1) was fused to the native protox-1 promoter fragment and transformed into Arabidopsis thaliana. […] Seed from the vacuum infiltrated plants was collected and plated on a range (10.0 nM-1.0 uM) of a protox inhibitory aryluracil herbicide of formula XVII. Multiple experiments with wild type Arabidopsis have shown that a 10.0 nM concentration of this compound is sufficient to prevent normal seedling germination. Transgenic seeds expressing the AraC-2Met altered enzyme fused to the native protox-1 promoter produced normal Arabidopsis seedlings at herbicide concentrations up to 500 nM, indicating at least 50-fold higher herbicide tolerance when compared to wild-type Arabidopsis. This promoter/altered protox enzyme fusion therefore functions as an effective selectable marker for plant transformation. Several of the plants that germinated on 100.0 nM of protox-inhibiting herbicide were transplanted to soil, grown 2-3 weeks, and tested in a spray assay with various concentrations of the protox-inhibiting herbicide. When compared to empty vector control transformants, the AraPT1Pro/AraC-2Met transgenics were >10-fold more tolerant to the herbicide spray.
Using the procedure described above, an Arabidopsis protox-1 cDNA containing both a TAC to ATC (tyrosine to isoleucine) change at nucleotides 1306-1308 and a TCA to TTA (serine to leucine) change at nucleotides 945-947 in the protox-1 sequence (SEQ ID NO:1) was fused to the native protox-1 promoter fragment and transformed into Arabidopsis thaliana.

[2] = system: maize protox-1 mutants; assay: Mutant screens of maize protox-1 (pMut-3) in the E. coli system; type: cell-based; details: screen on this herbicide
Method: The pMut-3 plasmid was transformed into the mutator XL1-Red strain as described above and the mutated DNA was isolated and plated on a herbicide concentration (formula XVII) that was lethal to the unmutagenized pMut-3 maize protox gene. Herbicide tolerant colonies were isolated after two days at 37° C. and analyzed as described above. […] Three of these mutations correspond to amino acid changes previously shown to confer tolerance at the homologous position in the Arabidopsis protox-1 gene. Two of the three are pMzC-1Val and pMzC-1Thr, converting the alanine (GCT) at amino acid 164 (SEQ ID NO:6) to either valine ([…]) or to threonine (ACT). This position corresponds to the pAraC-1 mutations described above (see, Table 1B; sub-sequence 3). The third analogous change, pMzC-3Ser, converts the glycine (GGT) at amino acid 165 to Serine (AGT), corresponding to the AraC-3Ser mutation described above (see, Table 1B; sub-sequence 4).
Additional mutant screens performed as described earlier in this example, except using formulas XXIIIa and XXIIIb instead of XVII, identified three additional amino acid changes that confer tolerant protox enzymes. […]

SMILES	Tolerance [1]	also measured
COC(=O)c1cc(Oc2ccc(Cl)cc2Cl)ccc1[N+](=O)[O-] [IVb]	+ (+ ≧ 10× more tolerant than wt)	
CCOc1cc(Oc2ccc(C(F)(F)F)cc2Cl)ccc1[N+](=O)[O-] [IVc]	+ (+ ≧ 10× more tolerant than wt)	
O=C([O-])c1cc(Oc2ccc(C(F)(F)F)cc2Cl)ccc1[N+](=O)[O-].[Na+] [II]	+ (+ ≧ 10× more tolerant than wt)	
Cn1nc(-c2c(F)cc(Cl)c(=O)n2C)c(Cl)c1OC(F)F [Formula XXIIIb]		tolerance of maize enzyme Mz88Cys ([2]; arginine 88 to cysteine): highly tolerant
CS(=O)(=O)NC(=O)c1cc(Oc2ccc(C(F)(F)F)cc2Cl)ccc1[N+](=O)[O-] [III]	+ (+ ≧ 10× more tolerant than wt)	
Cn1nc(-c2ncc(Cl)cc2F)c(Cl)c1OC(F)F [Formula XXIIIa]		tolerance of maize enzyme Mz347Ser453Thr ([2]; double mutant): highly tolerant
